Experimental data from patent US6540976B1, “Method for reducing radiation toxicity” (The Board of Trustees of the University of Arkansas, priority 1997, dated 2003).

Assays:
[1] = tested on: radiation enteropathy (irradiated small bowel); assay: Rat small bowel radiation enteropathy model, single dose irradiation; type: in vivo, rats
Method: A 4-cm segment of distal ileum was sutured to the inside of the scrotum in orchiectomized male rats, thus forming an artificial “scrotal hernia”. The afferent bowel was divided 10 cm proximal to the “hernia”, an end ileostomy was prepared, and intestinal continuity was restored by end-to-side anastomosis. The intestine in the “hernia” was subsequently exposed to 0, 18, or 21 Gy single dose, or 8 daily fractions of 5.6 Gy (total dose 44.8 Gy), external beam X-irradiation. […] Mucosal injury was monitored non-invasively by assessment of granulocyte marker protein (GMP) excretion. Irradiated and shielded intestine were procured 2 weeks after irradiation and assessed for structural changes by histopathologic scoring, and for TGF-β, IL-1α, and ED-2 macrophage antigen immunoreactivity. Radiation injury scores are Ad the sum of 7 different histopathologic parameters graded according to severity. Intestinal wall thickness was measured with light microscopy and a stage micrometer. Intestinal wall TGF-β immunoreactivity levels were measured with computerized image analysis, and the number of ED-2 positive cells (macrophages) were counted with a light microscope and fields were determined according to a predetermined grid pattern.

[2] = tested on: mononuclear cells; conditions: cited from earlier work
[3] = in vivo; cited from earlier work
[4] = tested on: neutrophils; conditions: cited from earlier work
[5] = tested on: T-cell; conditions: cited from earlier work
[6] = tested on: radiation enteropathy (irradiated small bowel); assay: Rat small bowel radiation enteropathy model, fractionated radiation; type: in vivo, rats; conditions: 8 x 5.6 Gy, 30 mg/kg q.d. for 14 days
Method: A 4-cm segment of distal ileum was sutured to the inside of the scrotum in orchiectomized male rats, thus forming an artificial “scrotal hernia”. The afferent bowel was divided 10 cm proximal to the “hernia”, an end ileostomy was prepared, and intestinal continuity was restored by end-to-side anastomosis. The intestine in the “hernia” was subsequently exposed to 0, 18, or 21 Gy single dose, or 8 daily fractions of 5.6 Gy (total dose 44.8 Gy), external beam X-irradiation. Orazipone or vehicle was injected through the stoma from 3 days prior to 2 weeks after irradiation. Mucosal injury was monitored non-invasively by assessment of granulocyte marker protein (GMP) excretion. Irradiated and shielded intestine were procured 2 weeks after irradiation and assessed for structural changes by histopathologic scoring, and for TGF-β, IL-1α, and ED-2 macrophage antigen immunoreactivity. Radiation injury scores are Ad the sum of 7 different histopathologic parameters graded according to severity. Intestinal wall thickness was measured with light microscopy and a stage micrometer. Intestinal wall TGF-β immunoreactivity levels were measured with computerized image analysis, and the number of ED-2 positive cells (macrophages) were counted with a light microscope and fields were determined according to a predetermined grid pattern.
To evaluate the effects of Orazipone following fractionated radiation, the transposed loop of small bowel was exposed to sham-irradiation or 8 daily fractions of 5.6 Gy (total dose 44.8 Gy). Orazipone (30 mg/kg q.d.) or vehicle was delivered for 14 days in 2 separate experimental groups. Group 1 received the drug during and after irradiation (radiation day 2 through post-radiation day 7), while Group 2 received the drug only after irradiation (post-radiation days 0 through 13). All animals were euthanized on post-radiation day 14.

[7] = single dose irradiation, vs vehicle-treated controls, p<0.01
[8] = given either during or after irradiation

## CC(=O)C(=Cc1ccc(S(C)(=O)=O)cc1)C(C)=O [Orazipone]
[1]; 30 mg/kg daily for 1 week after a single dose of 21 Gy
  TGF-β overexpression: significantly attenuated
[1]; 30 mg/kg daily for 1 week after a single dose of 21 Gy, reduced from 80% (control)
  frequency of subacute severe small bowel radiation toxicity: 25%
[1]; single dose irradiation
  GMP excretion: not significantly affected
  macrophage accumulation: not significantly affected
[1]; [7]
  extracellular matrix-associated TGF-β immunoreactivity: less
  histopathologic injury of irradiated intestine: less
[1]; single dose irradiation, vs vehicle-treated controls, p<0.05
  intestinal wall thickening: less
[1]; single dose irradiation, vs vehicle-treated controls, p=0.05
  IL-1α positive cells: less
[2]
  release of IL-1α, IL-1β and TNFα from mononuclear cells: inhibits
[3]
  fate of absorbed drug (metabolism): broken down into inactive metabolites very quickly
[4]
  NADPH oxidase and LTB4 production by neutrophils: suppresses
[5]
  T-cell proliferation and IL-2 release: reduces
[6]; [8]
  subacute radiation enteropathy as assessed by Radiation Injury Score: significantly ameliorated
  subacute radiation enteropathy as assessed by extracellular matrix-associated TGF-β immunoreactivity: significantly ameliorated
  subacute radiation enteropathy as assessed by intestinal wall thickness: significantly ameliorated
[6]; among the treatment groups
  extent of mucosal injury (mucosal surface area measurements): did not differ
